Data on two substances can be found in paper PMC8841528, “Structural Basis for Unusual TCR CDR3β Usage Against an Immunodominant HIV-1 Gag Protein Peptide Restricted to an HLA-B*81:01 Molecule” (Frontiers in Immunology, 2022).

The test deals with T18A TCR. The experiment in a line: Surface plasmon resonance (SPR) binding of T18A TCR to peptide/HLA-B*81:01 complexes. The note with it: result in words. The method, then: The SPR assays were performed as described earlier ([40]–[42]). Briefly, the protein was buffer -exchanged into PBS and biotinylated for 1h at room temperature. […] The Kd was determined by the fitting of a single-ligand binding model.
A general note: SPR reads the build-up and loss of mass on a sensor chip optically.

“TPQDLNsML [TL9 escape variant, Ser at position 7, presented by HLA-B*81:01]”: the “recognition of TL9 escape variant presented by HLA-B*81:01 by T18A TCR” value is listed as “could recognize”.
Then “TPsDLNTML [TL9 escape variant, Ser at position 3, presented by HLA-B*81:01]”, with “could recognize”.
